How the values were obtained:
Assay type in all cases: in vivo
[1] = tested on: Stellaria media (STEME); assay: Herbicidal post-emergence action; details: 1280 g/ha, assessed after ca. 3 weeks
In short: (§1)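 Compound applied as spray to single-leaf-stage plants (sandy loam, greenhouse) at 320 or 1280 g/ha; read-out is visual percent kill after ca. 3 weeks, with untreated plants as 0%.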

[2] = tested on: Veronica persica (VERPE); assay: Herbicidal post-emergence action; details: 1280 g/ha, assessed after ca. 3 weeks
In short: as §1

[3] = tested on: Avena fatua (AVEFA); assay: Herbicidal post-emergence action; details: 1280 g/ha, assessed after ca. 3 weeks
In short: as §1

[4] = tested on: Alopecurus myosuroides (ALOMY); assay: Herbicidal post-emergence action; details: 1280 g/ha, assessed after ca. 3 weeks
In short: as §1

[5] = tested on: Lolium multiflorum (LOLMU); assay: Herbicidal post-emergence action; details: 1280 g/ha, assessed after ca. 3 weeks
In short: as §1

[6] = tested on: Echinochloa crus-galli (ECHCG); assay: Herbicidal post-emergence action; details: 1280 g/ha, assessed after ca. 3 weeks
In short: as §1

[7] = tested on: Avena fatua (AVEFA); assay: Herbicidal pre-emergence action; details: 1280 g/ha, graded after ca. 3 weeks
In short: (§2)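 Sandy loam, seeds covered with soil → compound (WP or EC, +0.5% additive, 600 l water/ha, ≤1280 g/ha) onto covering soil → greenhouse, optimum conditions → visual % damage at ~3 wk vs untreated.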

[8] = tested on: Alopecurus myosuroides (ALOMY); assay: Herbicidal pre-emergence action; details: 1280 g/ha, graded after ca. 3 weeks
In short: as §2

[9] = tested on: Cyperus esculentus (CYPES); assay: Herbicidal pre-emergence action; details: 1280 g/ha, graded after ca. 3 weeks
In short: as §2

[10] = tested on: Polygonum convolvulus (POLCO); assay: Herbicidal pre-emergence action; details: 1280 g/ha, graded after ca. 3 weeks
In short: as §2

[11] = tested on: Lolium multiflorum (LOLMU); assay: Herbicidal pre-emergence action; details: 1280 g/ha, graded after ca. 3 weeks
In short: as §2

[12] = tested on: Setaria viridis (SETVI); assay: Herbicidal pre-emergence action; details: 1280 g/ha, graded after ca. 3 weeks
In short: as §2

[13] = tested on: Echinochloa crus-galli (ECHCG); assay: Herbicidal pre-emergence action; details: 1280 g/ha, graded after ca. 3 weeks
In short: as §2

[14] = tested on: Lolium rigidum (LOLRI); assay: Herbicidal post-emergence action; details: 320 g/ha, assessed after ca. 3 weeks
In short: as §1

[15] = tested on: Digitaria sanguinalis (DIGSA); assay: Herbicidal post-emergence action; details: assessed after ca. 3 weeks
In short: as §1

[16] = tested on: Stellaria media (STEME); assay: Herbicidal pre-emergence action; details: 1280 g/ha, graded after ca. 3 weeks
In short: as §2

[17] = tested on: Veronica persica (VERPE); assay: Herbicidal pre-emergence action; details: 1280 g/ha, graded after ca. 3 weeks
In short: as §2

[18] = tested on: Pharbitis purpurea (PHBPU); assay: Herbicidal pre-emergence action; details: 1280 g/ha, graded after ca. 3 weeks
In short: as §2

[19] = tested on: Digitaria sanguinalis (DIGSA); assay: Herbicidal pre-emergence action; details: graded after ca. 3 weeks
In short: as §2

[20] = tested on: Viola tricolor (VIOTR); assay: Herbicidal pre-emergence action; details: graded after ca. 3 weeks
In short: as §2

[21] = tested on: Brassica napus (BRSNW); assay: Post-emergence effects on crop plants; details: application rate 320 g/ha, crop plant Brassica napus (BRSNW)
In short: (§3)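 Greenhouse-grown plants in sandy loam sprayed post-emergence at single-leaf stage (2–3 weeks after sowing) with WP or EC formulations plus 0.5% additive, 600 l water/ha, at rates of 320 g/ha or below. Visual damage scored ca. 3 weeks later versus untreated controls, 0% (as control) to 100% (dead).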

[22] = tested on: Glycine max (GLXMA); assay: Post-emergence effects on crop plants; details: 320 g/ha, crop plant
In short: as §3

[23] = tested on: Zea Mays (ZEAMX); assay: Post-emergence effects on crop plants; details: 320 g/ha, crop plant
In short: as §3

[24] = tested on: Brassica napus (BRSNW); assay: Pre-emergence effects on crop plants; details: 320 g/ha, crop plant
In short: (§4)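 Pre-emergence soil-surface spray on sown seeds in sandy loam, compounds formulated as WP or EC with 0.5% additive at 600 l water/ha, rates of 320 g/ha or below. Greenhouse-grown under optimum conditions; visual damage scored at ca. 3 weeks versus untreated controls (0% = control, 100% = dead).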

[25] = tested on: Glycine max (GLXMA); assay: Pre-emergence effects on crop plants; details: 320 g/ha, crop plant
In short: as §4

[26] = tested on: Zea Mays (ZEAMX); assay: Pre-emergence effects on crop plants; details: 320 g/ha, crop plant
In short: as §4

[27] = tested on: Matricaria inodora (MATIN); assay: Herbicidal pre-emergence action; details: 1280 g/ha, graded after ca. 3 weeks
In short: as §2

[28] = tested on: Amaranthus retroflexus (AMARE); assay: Herbicidal pre-emergence action; details: 1280 g/ha, graded after ca. 3 weeks
In short: as §2

[29] = tested on: Setaria viridis (SETVI); assay: Herbicidal post-emergence action; details: 1280 g/ha, assessed after ca. 3 weeks
In short: as §1

[30] = tested on: Amaranthus retroflexus (AMARE); assay: Herbicidal post-emergence action; details: 1280 g/ha, assessed after ca. 3 weeks
In short: as §1

[31] = tested on: Polygonum convolvulus (POLCO); assay: Herbicidal post-emergence action; details: 1280 g/ha, assessed after ca. 3 weeks
In short: as §1

[32] = tested on: Viola tricolor (VIOTR); assay: Herbicidal post-emergence action; details: 1280 g/ha, assessed after ca. 3 weeks
In short: as §1

[33] = tested on: Matricaria inodora (MATIN); assay: Herbicidal post-emergence action; details: 1280 g/ha, assessed after ca. 3 weeks
In short: as §1

[34] = tested on: Pharbitis purpurea (PHBPU); assay: Herbicidal post-emergence action; details: 1280 g/ha, assessed after ca. 3 weeks
In short: as §1

[35] = tested on: Poa annua (POAAN); assay: Herbicidal post-emergence action; details: assessed after ca. 3 weeks
In short: as §1

[36] = tested on: Lolium rigidum (LOLRI); assay: Herbicidal pre-emergence action; details: 320 g/ha, graded after ca. 3 weeks
In short: as §2

[37] = tested on: Poa annua (POAAN); assay: Herbicidal pre-emergence action; details: graded after ca. 3 weeks
In short: as §2

Cn1nnnc1NC(=O)CC1CCC(=O)N1Cc1cccc(F)c1F (racemic) [Example I-004]
Post-emergence activity against STEME [1]: 80%
Post-emergence activity against VERPE [2]: 80%
Post-emergence activity against AVEFA [3]: 100%
Post-emergence activity against ALOMY [4]: 90%
Post-emergence activity against LOLMU [5]: 90%
Post-emergence activity against ECHCG [6]: 100%
Pre-emergence activity against AVEFA [7]: 100%
Pre-emergence activity against ALOMY [8]: 90%
Pre-emergence activity against CYPES [9]: 100%
Pre-emergence activity against POLCO [10]: 80%
Pre-emergence activity against LOLMU [11]: 90%
Pre-emergence activity against SETVI [12]: 80%
Pre-emergence activity against ECHCG [13]: 80%

O=C(CC1CCC(=O)N1Cc1cccc(F)c1F)OCCOc1ccc(F)cc1 (racemic) [Example I-007]
Post-emergence activity against AVEFA [3]: 90%
Post-emergence activity against ALOMY [4]: 80%
Post-emergence activity against LOLRI [14]: 80%
Post-emergence activity against DIGSA ([15]; 320 g/ha): 90%
Post-emergence activity against ECHCG [6]: 90%
Pre-emergence activity against STEME [16]: 80%
Pre-emergence activity against VERPE [17]: 90%
Pre-emergence activity against AVEFA [7]: 100%
Pre-emergence activity against PHBPU [18]: 80%
Pre-emergence activity against ALOMY [8]: 90%
Pre-emergence activity against CYPES [9]: 90%
Pre-emergence activity against POLCO [10]: 90%
Pre-emergence activity against LOLMU [11]: 90%
Pre-emergence activity against DIGSA ([19]; 320 g/ha): 90%
Pre-emergence activity against SETVI [12]: 90%
Pre-emergence activity against ECHCG [13]: 90%
Pre-emergence activity against VIOTR ([20]; 320 g/ha): 90%
post-emergence activity against BRSNW [21]: 0%
post-emergence activity against GLXMA (crop damage) [22]: 0%
post-emergence activity against ZEAMX (crop damage) [23]: 0%
pre-emergence activity against BRSNW (crop damage) [24]: 0%
pre-emergence activity against GLXMA (crop damage) [25]: 0%
pre-emergence activity against ZEAMX (crop damage) [26]: 0%

O=C(CC1CCC(=O)N1Cc1cccc(F)c1F)OCCOc1ccc(Cl)cc1 (racemic) [Example I-033]
Post-emergence activity against ALOMY [4]: 80%
Post-emergence activity against ECHCG [6]: 80%
Pre-emergence activity against VERPE [17]: 90%
Pre-emergence activity against MATIN [27]: 80%
Pre-emergence activity against AVEFA [7]: 100%
Pre-emergence activity against PHBPU [18]: 80%
Pre-emergence activity against ALOMY [8]: 90%
Pre-emergence activity against CYPES [9]: 80%
Pre-emergence activity against SETVI [12]: 80%
Pre-emergence activity against ECHCG [13]: 80%

COC(=O)C1(NC(=O)CC2CCC(=O)N2Cc2cccc(F)c2F)CC1 (racemic) [Example I-048]
Pre-emergence activity against AMARE [28]: 90%
Pre-emergence activity against AVEFA [7]: 90%
Pre-emergence activity against ALOMY [8]: 80%
Pre-emergence activity against LOLMU [11]: 80%

O=C(CC1CCC(=O)N1Cc1cccc(F)c1F)NCc1ccccc1 (racemic) [Example I-055]
Pre-emergence activity against AMARE [28]: 100%
Pre-emergence activity against AVEFA [7]: 80%
Pre-emergence activity against CYPES [9]: 100%

CC1(C)CC(=O)C(C(=O)CC2CCC(=O)N2Cc2cccc(F)c2F)C(=O)C1 (racemic) [Example I-179]
Post-emergence activity against STEME [1]: 80%
Post-emergence activity against AVEFA [3]: 90%
Post-emergence activity against SETVI [29]: 80%
Post-emergence activity against ECHCG [6]: 90%
Pre-emergence activity against STEME [16]: 80%
Pre-emergence activity against AVEFA [7]: 90%

CC1CC(=O)C(C(=O)CC2CCC(=O)N2Cc2cccc(F)c2F)C(=O)C1 (racemic) [Example I-180]
Post-emergence activity against AMARE [30]: 90%
Post-emergence activity against STEME [1]: 90%
Post-emergence activity against AVEFA [3]: 80%
Post-emergence activity against POLCO [31]: 80%
Post-emergence activity against ECHCG [6]: 90%
Post-emergence activity against VIOTR [32]: 80%
Pre-emergence activity against AVEFA [7]: 90%
Pre-emergence activity against ALOMY [8]: 80%
Pre-emergence activity against ECHCG [13]: 90%

CC1(C)C(=O)C(C(=O)CC2CCC(=O)N2Cc2cccc(F)c2F)C(=O)C(C)(C)C1=O (racemic) [Example I-184]
Post-emergence activity against AMARE [30]: 80%
Post-emergence activity against STEME [1]: 80%
Post-emergence activity against VERPE [2]: 80%
Post-emergence activity against MATIN [33]: 90%
Post-emergence activity against AVEFA [3]: 80%
Post-emergence activity against PHBPU [34]: 90%
Post-emergence activity against ALOMY [4]: 80%
Post-emergence activity against LOLMU [5]: 80%
Pre-emergence activity against MATIN [27]: 80%

O=C(O)CC1CCC(=O)N1Cc1cccc(F)c1F (single isomer, unassigned) [Example I-065]
Post-emergence activity against AVEFA [3]: 90%
Post-emergence activity against PHBPU [34]: 80%
Pre-emergence activity against AVEFA [7]: 80%
Pre-emergence activity against POLCO [10]: 100%
Pre-emergence activity against VIOTR ([20]; 1280 g/ha): 100%

O=C(O)CC1CCC(=O)N1Cc1ccc(F)c(F)c1F (centres unmarked) [Example I-192, [5-Oxo-1-(2,3,4-trifluorobenzyl)pyrrolidin-2-yl]acetic acid]
Post-emergence activity against POAAN ([35]; 320 g/ha): 100%
Post-emergence activity against POAAN ([35]; 1280 g/ha): 100%
Post-emergence activity against DIGSA ([15]; 1280 g/ha): 90%
Post-emergence activity against ECHCG [6]: 90%
Pre-emergence activity against ALOMY [8]: 90%
Pre-emergence activity against LOLRI [36]: 90%
Pre-emergence activity against POAAN ([37]; 320 g/ha): 100%
Pre-emergence activity against POAAN ([37]; 1280 g/ha): 100%
Pre-emergence activity against DIGSA ([19]; 320 g/ha): 90%
Pre-emergence activity against DIGSA ([19]; 1280 g/ha): 90%
Pre-emergence activity against SETVI [12]: 90%
Pre-emergence activity against ECHCG [13]: 80%
post-emergence activity against BRSNW [21]: 0%
